Structures are written as SMILES. Values after ≈ are worked out from the molar mass of the structure shown.

For eleven compounds, MIC results are on record in ChEMBL document CHEMBL1141645, “Synthesis and antimycobacterial evaluation of new trans-cinnamic acid hydrazide derivatives” (2008).

In this assay the test system is Mycobacterium tuberculosis. Kind of assay: Antimicrobial activity against Mycobacterium tuberculosis ATCC […] by Almar blue assay. It counts as functional.
As for `O=C(/C=C/c1ccccc1)NNC(=O)c1ccccc1`, the MIC – broadly, the smallest concentration in the dilution series that meets the test's criterion for growth inhibition – is 50 mg/L (≈ 188 µM).
As for `COc1ccc(/C=C/C(=O)NNC(=O)c2ccccc2)cc1`, the MIC worked out at 12.5 mg/L (≈ 42.2 µM).
In turn, `COc1ccc(/C=C/C(=O)NNC(=O)c2ccncc2)cc1` registered an MIC of 3.12 mg/L (≈ 10.5 µM). This MIC is about 4-fold lower than that of the compound before.
Take `O=C(/C=C/c1ccc2c(c1)OCO2)NNC(=O)c1ccccc1`: the MIC was determined as 25 mg/L (≈ 80.6 µM). This MIC lies about 8-fold higher than the previous one.
Consider `O=C(/C=C/c1ccc(Cl)cc1Cl)NNC(=O)c1ccncc1`, for which the MIC is > 100 mg/L.
Compound `O=C(/C=C/c1ccc([N+](=O)[O-])cc1)NNC(=O)c1ccncc1` displayed an MIC of 3.12 mg/L (≈ 9.99 µM).
`O=C(/C=C/c1ccc2c(c1)OCO2)NNC(=O)c1ccncc1` came in with an MIC of 3.12 mg/L (≈ 10 µM).
For `O=C(/C=C/c1ccc(Cl)cc1Cl)NNC(=O)c1ccccc1` the value was > 100 mg/L; for `O=C(/C=C/c1ccc([N+](=O)[O-])cc1)NNC(=O)c1ccccc1`, > 100 mg/L; for `O=C(/C=C/c1ccccc1)NNC(=O)c1ccncc1`, 3.12 mg/L (≈ 11.7 µM).
For `NNC(=O)c1ccncc1` [ISONIAZID] the value was 0.2 mg/L (≈ 1.46 µM).
